Experimental data as given in article PMC8896928, “Preparation, Characterization, and Preliminary Imaging Study of [^188Re]Re-Ibandronate as a Novel Theranostic Radiopharmaceutical for Bone Metastasis” (Contrast Media & Molecular Imaging, 2022).
Where two headings read alike, the source gives them in different places.

Key:
[1] = Biodistribution in normal mice; type: in vivo, Kunming mice
Description: Twenty Kunming mice (originated from Swiss albino mice and introduced into Kunming, China.) were randomly divided into five groups (equal number of males and females). Each group was injected with 3.7 MBq [^188Re]Re-IBA. […] The blood and important tissue and organ samples were collected to measure the radioactivity count by γ counter. Following the time attenuation correction, the percentage injection dose rate per gram of tissue (%ID/g) was calculated at each time point. The result is expressed as mean ± standard deviation ( χ¯ ± s). The in vivo distribution of [^188Re]ReO4^− was studied using the aforementioned method.

patients = conditions: cited from earlier work; for Nephrotoxicity: patients, renal safety
[2] = 0.9% NaCl, 24 h; cited from earlier work
[3] = Swiss mice, cited from earlier work
[4] = Kunming mice, 24 h, cited from earlier work
[5] = patients with bone tumors, P < 0.05

For `[O]=[188Re](=[O])(=[O])[O-]` [[^188Re]ReO4^−, reference compound], the “%ID/g Blood” value ([1]; 1 h) was 4.648 ± 1.631 %ID/g, the “%ID/g Brain” value ([1]; 1 h) was 0.207 ± 0.044 %ID/g and the “%ID/g Femur” value ([1]; 1 h) was 1.670 ± 0.345 %ID/g. For the same compound, the “%ID/g Gonad” value ([1]; 1 h) was 1.096 ± 0.007 %ID/g, the “%ID/g Heart” value ([1]; 1 h) was 1.422 ± 0.339 %ID/g and the “%ID/g Kidney” value ([1]; 1 h) was 2.923 ± 0.658 %ID/g. For the same compound, the “%ID/g Liver” value ([1]; 1 h) was 2.480 ± 0.556 %ID/g, the “%ID/g Lung” value ([1]; 1 h) was 4.458 ± 1.379 %ID/g and the “%ID/g Muscle” value ([1]; 1 h) was 0.775 ± 0.074 %ID/g. The “%ID/g Small intestine” value ([1]; 1 h) was 1.671 ± 0.448 %ID/g, the “%ID/g Spleen” value ([1]; 1 h) was 2.341 ± 0.973 %ID/g and the “%ID/g Stomach” value ([1]; 1 h) was 22.747 ± 5.67 %ID/g. The “%ID/g Thyroid gland” value ([1]; 1 h) was 20.247 ± 2.489 %ID/g, the Femur/heart radioactivity ratio ([1]; 1 h) was 1.195 and the Femur/liver radioactivity ratio ([1]; 1 h) was 0.685. The Femur/muscle radioactivity ratio ([1]; 1 h) was 2.193, the “%ID/g Blood” value ([1]; 3 h) was 1.578 ± 0.419 %ID/g and the “%ID/g Brain” value ([1]; 3 h) was 0.070 ± 0.024 %ID/g. For the same compound, the “%ID/g Femur” value ([1]; 3 h) was 0.431 ± 0.038 %ID/g, the “%ID/g Gonad” value ([1]; 3 h) was 0.404 ± 0.130 %ID/g and the “%ID/g Heart” value ([1]; 3 h) was 0.401 ± 0.050 %ID/g. The “%ID/g Kidney” value ([1]; 3 h) was 0.683 ± 0.118 %ID/g, the “%ID/g Liver” value ([1]; 3 h) was 0.530 ± 0.038 %ID/g and the “%ID/g Lung” value ([1]; 3 h) was 1.026 ± 0.312 %ID/g. The “%ID/g Muscle” value ([1]; 3 h) was 0.182 ± 0.023 %ID/g, the “%ID/g Small intestine” value ([1]; 3 h) was 0.558 ± 0.207 %ID/g and the “%ID/g Spleen” value ([1]; 3 h) was 0.490 ± 0.090 %ID/g. For the same compound, the “%ID/g Stomach” value ([1]; 3 h) was 8.578 ± 3.928 %ID/g, the “%ID/g Thyroid gland” value ([1]; 3 h) was 10.167 ± 1.618 %ID/g and the Femur/heart radioactivity ratio ([1]; 3 h) was 1.075. The Femur/liver radioactivity ratio ([1]; 3 h) was 0.813, the Femur/muscle radioactivity ratio ([1]; 3 h) was 2.372 and the “%ID/g Blood” value ([1]; 6 h) was 0.533 ± 0.254 %ID/g. The “%ID/g Brain” value ([1]; 6 h) was 0.044 ± 0.019 %ID/g, the “%ID/g Femur” value ([1]; 6 h) was 0.213 ± 0.102 %ID/g and the “%ID/g Gonad” value ([1]; 6 h) was 0.207 ± 0.065 %ID/g. The “%ID/g Heart” value ([1]; 6 h) was 0.176 ± 0.074 %ID/g, the “%ID/g Kidney” value ([1]; 6 h) was 0.338 ± 0.191 %ID/g and the “%ID/g Liver” value ([1]; 6 h) was 0.258 ± 0.086 %ID/g. For the same compound, the “%ID/g Lung” value ([1]; 6 h) was 0.487 ± 0.132 %ID/g, the “%ID/g Muscle” value ([1]; 6 h) was 0.109 ± 0.065 %ID/g and the “%ID/g Small intestine” value ([1]; 6 h) was 0.263 ± 0.050 %ID/g. The “%ID/g Spleen” value ([1]; 6 h) was 0.270 ± 0.098 %ID/g, the “%ID/g Stomach” value ([1]; 6 h) was 2.828 ± 1.287 %ID/g and the “%ID/g Thyroid gland” value ([1]; 6 h) was 4.299 ± 1.015 %ID/g. For the same compound, the Femur/heart radioactivity ratio ([1]; 6 h) was 1.205, the Femur/liver radioactivity ratio ([1]; 6 h) was 0.823 and the Femur/muscle radioactivity ratio ([1]; 6 h) was 1.950. For the same compound, the “%ID/g Blood” value ([1]; 24 h) was 0.023 ± 0.009 %ID/g, the “%ID/g Brain” value ([1]; 24 h) was 0.017 ± 0.004 %ID/g and the “%ID/g Femur” value ([1]; 24 h) was 0.031 ± 0.003 %ID/g. For the same compound, the “%ID/g Gonad” value ([1]; 24 h) was 0.021 ± 0.009 %ID/g, the “%ID/g Heart” value ([1]; 24 h) was 0.017 ± 0.005 %ID/g and the “%ID/g Kidney” value ([1]; 24 h) was 0.017 ± 0.003 %ID/g. For the same compound, the “%ID/g Liver” value ([1]; 24 h) was 0.023 ± 0.010 %ID/g, the “%ID/g Lung” value ([1]; 24 h) was 0.054 ± 0.017 %ID/g and the “%ID/g Muscle” value ([1]; 24 h) was 0.021 ± 0.008 %ID/g. The “%ID/g Small intestine” value ([1]; 24 h) was 0.023 ± 0.004 %ID/g, the “%ID/g Spleen” value ([1]; 24 h) was 0.028 ± 0.007 %ID/g and the “%ID/g Stomach” value ([1]; 24 h) was 0.053 ± 0.032 %ID/g. For the same compound, the “%ID/g Thyroid gland” value ([1]; 24 h) was 0.051 ± 0.026 %ID/g, the Femur/heart radioactivity ratio ([1]; 24 h) was 1.853 and the Femur/liver radioactivity ratio ([1]; 24 h) was 1.325. The Femur/muscle radioactivity ratio ([1]; 24 h) was 1.498, the “%ID/g Blood” value ([1]; 48 h) was 0.007 ± 0.002 %ID/g and the “%ID/g Brain” value ([1]; 48 h) was 0.013 ± 0.006 %ID/g. For the same compound, the “%ID/g Femur” value ([1]; 48 h) was 0.011 ± 0.005 %ID/g, the “%ID/g Gonad” value ([1]; 48 h) was 0.007 ± 0.001 %ID/g and the “%ID/g Heart” value ([1]; 48 h) was 0.011 ± 0.004 %ID/g. The “%ID/g Kidney” value ([1]; 48 h) was 0.017 ± 0.007 %ID/g, the “%ID/g Liver” value ([1]; 48 h) was 0.018 ± 0.010 %ID/g and the “%ID/g Lung” value ([1]; 48 h) was 0.036 ± 0.008 %ID/g. For the same compound, the “%ID/g Muscle” value ([1]; 48 h) was 0.020 ± 0.005 %ID/g, the “%ID/g Small intestine” value ([1]; 48 h) was 0.014 ± 0.005 %ID/g and the “%ID/g Spleen” value ([1]; 48 h) was 0.022 ± 0.006 %ID/g. For the same compound, the “%ID/g Stomach” value ([1]; 48 h) was 0.029 ± 0.012 %ID/g, the “%ID/g Thyroid gland” value ([1]; 48 h) was 0.025 ± 0.009 %ID/g and the Femur/heart radioactivity ratio ([1]; 48 h) was 1.060. It also gave a Femur/liver radioactivity ratio ([1]; 48 h) of 0.638 and a Femur/muscle radioactivity ratio ([1]; 48 h) of 0.585.

For `CCCCCN(C)CCC(O)(P(=O)(O)O)P(=O)(O)O` [ibandronic acid, Ibandronic acid], the “Renal function during follow-up” value (patients; 44 patients, average follow-up of 18.5 months) is listed as “no impairment of renal function”, the “Pain relief rate and improvement in the quality of life vs zoledronic acid group” value (patients; [5]) is listed as “higher” and the “Rate of adverse reactions vs zoledronic acid group” value (patients; [5]) is listed as “lower”. For the same compound, the Nephrotoxicity (patients) was “extremely low and equivalent to that of the placebo”.

In the case of `O=P(O)(O)C(O)(Cn1ccnc1)P(=O)(O)O` [zoledronic acid], the Nephrotoxicity (patients) is listed as “possible occurrence of nephrotoxicity”.

For “[^188Re]Re-bisphosphonate hydroxyethylidene diphosphonate [[^188Re]Re-HEDP]”, the “Stability (RCP)” value [2] is given as 91.2%, the “Bone uptake (maximum)” value ([3]; 4 h) is given as 1.0 ± 0.1 %ID/g and the Bone uptake ([4]; ref 37) is given as 22.36 ± 4.11 %ID/g. For the same compound, the Bone uptake ([4]; ref 38) was 11.08 ± 4.25 %ID/g.

For [^188Re]Re-pamidronate [[^188Re]Re-PMA], the “Bone uptake (lowest)” value ([3]; 1 h) is listed as 0.40 ± 0.05 %ID/g and the “Bone uptake (highest)” value ([3]; 4 h) is listed as 0.81 ± 0.25 %ID/g.
